Data on 20 compounds can be found in patent US12686664B2, “SOCE inhibitors and therapeutic uses thereof” (Institut National de la Santé et de la Recherche Médicale …, priority 2020, dated 2026).

The subject of this assay is store-operated Ca^2+ entry in PLP-B lymphocytes. Put plainly: Store-operated Ca2+ entry after thapsigargin depletion of ER Ca2+ stores in PLP-B lymphocytes. It is filed as cell-based. The note with it: for pIC50: SOCE in PLP-B lymphocytes, average of three assays, ±0.5 μM. As to the method: The effects of the molecules developed were tested on PLP-B lymphocytes. Store-operated Ca^2+ entry was induced by depletion of Endoplasmic Reticulum Ca^2+ stores (ER Ca^2+ stores) with thapsigargin (Tg) in a Ca^2+-free medium and measured following the addition of 1.8 mM of CaCl2) in the extracellular medium. The results are compared to the results obtained for known SOCE inhibitors SKF-96365, GSK-7975A, Synta 66.

The mark [1] stands for this setting: Lymphocyte, PLP-B lymphocytes, % of inhibition (−) or activation, DMSO control 100%, read-out: Effect on amplitude of SOCE Peak.
Setting [2] is: Lymphocyte, thapsigargin (Tg) peak, PLP-B lymphocytes, % of inhibition (−) or activation, read-out: Effect on amplitude of Tg Peak.
[3] abbreviates: Lymphocyte, 1 μM, PLP-B lymphocytes, % of inhibition (−) or activation, DMSO control 100%, read-out: Effect on amplitude of SOCE Peak.
Where [4] appears, read: Lymphocyte, 1 μM, thapsigargin (Tg) peak, PLP-B lymphocytes, % of inhibition (−) or activation, read-out: Effect on amplitude of Tg Peak.
The mark [5] stands for this setting: Lymphocyte, 10 μM, PLP-B lymphocytes, % of inhibition (−) or activation, DMSO control 100%, read-out: Effect on amplitude of SOCE Peak.
Setting [6] is: Lymphocyte, 10 μM, thapsigargin (Tg) peak, PLP-B lymphocytes, % of inhibition (−) or activation, read-out: Effect on amplitude of Tg Peak.
Where [7] appears, read: Lymphocyte, 50 μM, PLP-B lymphocytes, % of inhibition (−) or activation, DMSO control 100%, read-out: Effect on amplitude of SOCE Peak.
Setting [8] is: Lymphocyte, 50 μM, thapsigargin (Tg) peak, PLP-B lymphocytes, % of inhibition (−) or activation, read-out: Effect on amplitude of Tg Peak.
Setting [9] is: Lymphocyte, 100 μM, PLP-B lymphocytes, % of inhibition (−) or activation, DMSO control 100%, read-out: Effect on amplitude of SOCE Peak.
The mark [10] stands for this setting: Lymphocyte, 100 μM, thapsigargin (Tg) peak, PLP-B lymphocytes, % of inhibition (−) or activation, read-out: Effect on amplitude of Tg Peak.

pIC50: −log10 of the molar value. Counter-ions that a name gives are not always drawn. Like-named read-outs stand apart in the source and are kept apart here. Marks after values point to notes of the source that are not given here.

A word on the pIC50: it is −log10 of the IC50, conventionally taken in molar units. Read a low pIC50 as a high IC50. As to `Fc1ccc2c(c1)ncn2CCc1ccc(OCCc2ccc(OC3CCCCO3)cc2)cc1` (stereo not drawn) [11αc, 5-Fluoro-1-(4-(4-((tetrahydro-2H-pyran-2-yl)oxy)phenethoxy)phenethyl)-1H-benzo[d]imidazole], the inhibition at 0.1 µM by setting is: under setting [1], -67%; under setting [2], -16%. Besides, the inhibition at 1 µM is -26% under setting [3] and -4% under setting [4]. For the same compound, the inhibition at 10 µM runs as follows: under setting [5], 31%; under setting [6], 10%. The inhibition at 50 µM by setting is: under setting [7], 54%; under setting [8], 12%. In addition, the inhibition at 100 µM runs as follows: under setting [9], 35%; under setting [10], -3%. Moreover, for the setting “Lymphocyte”, the pIC50 was 5.80.
Consider `Oc1ccc(CCn2cnc3ccccc32)cc1` [12αa, 1-(4-Hydroxyphenylethyl)-1H-benzo[d]imidazol hydrochloride], for which the inhibition at 10 µM by setting is: under setting [5], -2.2%; under setting [6], -2.7%. Moreover, the inhibition at 50 µM by setting is: under setting [7], 0.9%; under setting [8], -4.3%. Also, the inhibition at 100 µM was -2.5% under setting [9] and -7.4% under setting [10].
For the compound `c1ccc2c(c1)cnn2CCc1ccc(OC2CCCCO2)cc1` (stereo not drawn) [11αe, 1-(4-((Tetrahydro-2H-pyran-2-yl)oxy)phenethyl)-1H-indazole], the inhibition at 0.1 µM under setting [1] turned out to be 23%. Besides, under setting [3], the inhibition at 1 µM amounted to 20%. In addition, the inhibition at 10 µM reads like this: under setting [5], 33%; under setting [6], 8%. For the same compound, the inhibition at 50 µM is 54% under setting [7] and 9% under setting [8]. Besides, the inhibition at 100 µM came out at 88% under setting [9] and 20% under setting [10]. The compound also had a pIC50 (Lymphocyte) of 4.40.
`Nc1ccc2c(c1)nc(C(F)(F)F)n2CCc1ccc(OCCCc2ccccc2)cc1` [6αv VAL 1-64]: under setting [5], the inhibition at 10 µM was -8%. Besides, under setting [6], the percent change in peak amplitude vs DMSO control (negative = inhibition, positive = activation) at 10 µM was found to be 0%. Also, the inhibition at 50 µM under setting [7] is 25% and the inhibition at 50 µM under setting [8] was -11%. Besides, the inhibition at 100 µM was 77% under setting [9] and -2% under setting [10].
Take `COc1ccc(CCOc2ccccc2CCn2cnc3ccccc32)cc1` [6αo DAD 4-551]: the inhibition at 50 µM by setting is: under setting [7], 33%; under setting [8], 4%. Also, the inhibition at 100 µM under setting [9] was 82% and the inhibition at 100 µM under setting [10] is -8%.
`c1ccc(OCCCOc2ccc(CCn3cnc4ccccc43)cc2)cc1` [6αs DAD 4-570]: the inhibition at 10 µM reads like this: under setting [5], 9.4%; under setting [6], 10.6%. Moreover, the inhibition at 50 µM reads like this: under setting [7], 19%; under setting [8], -0.7%. For the same compound, the inhibition at 100 µM by setting is: under setting [9], 56.9%; under setting [10], 4.1%.
As for `COc1ccc(CCOc2ccc(CCn3ncc4ccccc43)cc2)cc1` [6αb DAD 4-573, 1-(4-(4-Methoxyphenethoxy)phenethyl)-1H-indazole], the inhibition at 10 µM is -14% under setting [5] and 8% under setting [6]. In addition, the percent change in peak amplitude vs DMSO control (negative = inhibition, positive = activation) at 50 µM under setting [7] was 0%. Further, the inhibition at 50 µM under setting [8] was found to be 5%. Moreover, the inhibition at 100 µM under setting [9] was 30% and the inhibition at 100 µM under setting [10] was 22%.
For the compound `COc1ccc(COc2ccc(CCn3nc(C(F)(F)F)cc3C(F)(F)F)cc2)cc1` [6βu DAD 2.334], the inhibition at 10 µM under setting [5] is 2%. Also, the inhibition at 50 µM under setting [7] was -0.2%. Moreover, the inhibition at 100 µM under setting [9] is -0.4%.
As for `COc1ccc(CCOc2ccc(CCn3ccc(C(F)(F)F)n3)cc2)cc1` [Compound 6βs], the inhibition at 10 µM under setting [5] turned out to be 13%. Also, the inhibition at 50 µM under setting [7] came to 34% and the inhibition at 50 µM under setting [8] came out at 6%. In addition, the inhibition at 100 µM under setting [9] is 64% and the inhibition at 100 µM under setting [10] is 10%.
As to `Oc1ccc(CCn2cncn2)cc1` [12βa, 1-(4-Hydroxyphenylethyl)-1H-1,2,4-triazole hydrochloride], the inhibition at 10 µM by setting is: under setting [5], 8%; under setting [6], 8%. The inhibition at 50 µM stood at 10% under setting [7] and 14% under setting [8]. In addition, the inhibition at 100 µM runs as follows: under setting [9], 12%; under setting [10], 8%.
Take `Oc1ccc(CCn2ncc3ccccc32)cc1` [12αe, 1-(4-Hydroxyphenylethyl)-1H-indazole hydrochloride]: the inhibition at 10 µM is, setting by setting: under setting [5], 5%; under setting [6], 11%. Moreover, the inhibition at 50 µM under setting [7] is 18% and the inhibition at 50 µM under setting [8] is 29%. Further, the inhibition at 100 µM reads like this: under setting [9], 8%; under setting [10], 28%.
`COc1cccc(CCOc2ccc(CCn3cnc4ccccc43)cc2)c1` [6αad DAD 4-567]: the inhibition at 0.1 µM under setting [1] was -12.9%. The inhibition at 1 µM was -2.9% under setting [3] and 16.2% under setting [4]. For the same compound, the inhibition at 10 µM by setting is: under setting [5], 28.1%; under setting [6], 5.7%. For the same compound, the inhibition at 50 µM is, setting by setting: under setting [7], 81.7%; under setting [8], 9.1%. Under setting [9], the inhibition at 100 µM is 84.3%.
For `COc1ccc(COc2ccc(CCn3cccn3)cc2)cc1` [6βm DAD 2.306], the inhibition at 10 µM under setting [5] was -2%. The inhibition at 50 µM under setting [7] is -0.5%. Moreover, the inhibition at 100 µM under setting [9] is -16.8%.
Consider `COc1ccccc1CCOc1ccc(CCn2cnc3ccccc32)cc1` [6αac DAD 4-566], for which the inhibition at 0.1 µM reads like this: under setting [1], -12.9%; under setting [2], -2.3%. In addition, the inhibition at 1 µM is, setting by setting: under setting [3], -6.2%; under setting [4], 1.1%. Besides, the inhibition at 10 µM under setting [5] stood at 31.1% and the inhibition at 10 µM under setting [6] was -9.6%. Further, the inhibition at 50 µM by setting is: under setting [7], 87.2%; under setting [8], -9%. The inhibition at 100 µM was 84.3% under setting [9] and -13.2% under setting [10]. The pIC50 (Lymphocyte) is 4.87.
As for `COc1ccc(CCOc2ccc(CCn3c(C(F)(F)F)nc4cc(N)ccc43)cc2)cc1` [6αm VAL 1-77], the inhibition at 10 µM reads like this: under setting [5], -4%; under setting [6], 1%. For the same compound, the inhibition at 50 µM under setting [7] was 12% and the inhibition at 50 µM under setting [8] stood at 1%. Moreover, the inhibition at 100 µM under setting [9] is 55% and the inhibition at 100 µM under setting [10] was determined as 11%.
Turning to `COc1ccc(OC)c(-c2ccc(NC(=O)c3ccncc3F)cc2)c1` [Synta 66, reference compound], the pIC50 is 5.06. The “Effect on amplitude of SOCE peak” value (1 μM, PLP-B lymphocytes, % of inhibition (−) or activation, DMSO control 100%) is 9.0%. For the same compound, the “Effect on amplitude of SOCE peak” value (10 μM, PLP-B lymphocytes, % of inhibition (−) or activation, DMSO control 100%) amounted to 6.0%. The “Effect on amplitude of SOCE peak” value (50 μM, PLP-B lymphocytes, % of inhibition (−) or activation, DMSO control 100%) was −74.0%. In addition, the “Effect on amplitude of SOCE peak” value (100 μM, PLP-B lymphocytes, % of inhibition (−) or activation, DMSO control 100%) is listed as −89.0%.
With `COc1ccc(CCCOc2ccc(CCn3c(C(F)(F)F)nc4cc(N)ccc43)cc2)cc1` [6αu VAL 1-75], the inhibition at 10 µM under setting [5] is -6% and the inhibition at 10 µM under setting [6] was -5%. Moreover, the inhibition at 50 µM was 30% under setting [7] and -11% under setting [8]. Also, the inhibition at 100 µM is 68% under setting [9] and -5% under setting [10].
For `COc1ccc(CCCOc2ccc(CCn3nc(C(F)(F)F)cc3C(F)(F)F)cc2)cc1` [6βw DAD 2.335], the inhibition at 10 µM under setting [5] worked out at 4.6%. Under setting [7], the inhibition at 50 µM is -0.1%. For the same compound, the inhibition at 100 µM under setting [9] was 11.8%.
Take `COc1ccc(CCCOc2ccc(CCn3cncn3)cc2)cc1` [6βe DAD 3.470]: the “Effect on amplitude of SOCE peak” value reads like this: (50 μM, PLP-B lymphocytes, % of inhibition (−) or activation, DMSO control 100%, listed as 6βe) −6.0%; (100 μM, PLP-B lymphocytes, % of inhibition (−) or activation, DMSO control 100%, listed as 6βe) −21.0# %. For the same compound, for the setting “50 μM, thapsigargin (Tg) peak, PLP-B lymphocytes, % of inhibition (−) or activation, listed as 6βe”, the “Effect on amplitude of Tg Peak” value is on record as −31.0# %. Moreover, the inhibition at 100 µM under setting [10] came to 31%.
Regarding `COc1ccc(COc2ccc(CCn3c(C(F)(F)F)nc4cc(N)ccc43)cc2)cc1` [6αt VAL 1-76], the inhibition at 10 µM runs as follows: under setting [5], 3%; under setting [6], -1%. The inhibition at 50 µM was 10% under setting [7] and -6% under setting [8]. For the same compound, the inhibition at 100 µM was 34% under setting [9] and 22% under setting [10].
